# Assay results reported in patent publication US6440459B1, “Paroxetine maleate polymorph and pharmaceutical compositions containing it” (Medichem, S.A., priority 1998, dated 2002).
# Assay: Accelerated stability tests (storage at 40° C. and 75% Relative Humidity, HPLC analysis)
# Type: physicochemical
# Details: for Degradation in accelerated stability tests: high temperature and humidity conditions, periods of up to six months (summary statement); for Stability (degradation by HPLC) at the end of one month of storage / Stability (degradation by HPLC) at the end of six months of storage: solid in two-ply polythene bags, 40° C., 75% Relative Humidity, HPLC vs time of packaging
# Method: Accelerated Stability Tests Samples of paroxetine maleate Form A and Form B were packaged in two-ply polythene bags and stored at 40° C. and 75% Relative Humidity. The samples were analyzed at the time of packaging by HPLC and were analyzed with the same technique at the end of one month and six months of storage.
SMILES,Degradation in accelerated stability tests,Stability (degradation by HPLC) at the end of one month of storage,Stability (degradation by HPLC) at the end of six months of storage
"Fc1ccc([C@@H]2CCNC[C@H]2COc2ccc3c(c2)OCO3)cc1.O=C(O)/C=C\C(=O)O [Form A, (3S-trans)-3-[(1,3-benzodioxol-5-yloxy)methyl]-4-(4-fluorophenyl)piperidine acid maleate]",notable degradation,clear signs of degradation,high degree of degradation
"Fc1ccc([C@@H]2CCNC[C@H]2COc2ccc3c(c2)OCO3)cc1.O=C(O)/C=C\C(=O)O [Form B, (3S-trans)-3-[(1,3-benzodioxol-5-yloxy)methyl]-4-(4-fluorophenyl)piperidine acid maleate]",absence of significant degradation,substantially unaltered,substantially unaltered
